Consider eight compounds from ChEMBL document CHEMBL1201862, “PubChem BioAssay data set” (2004).

Active and inactive are the calls of the source.

In assay [1] the target is T1, Apoptotic protease-activating factor 1 (Homo sapiens, UniProt O14727).
T1 sequence (O14727 whole entry): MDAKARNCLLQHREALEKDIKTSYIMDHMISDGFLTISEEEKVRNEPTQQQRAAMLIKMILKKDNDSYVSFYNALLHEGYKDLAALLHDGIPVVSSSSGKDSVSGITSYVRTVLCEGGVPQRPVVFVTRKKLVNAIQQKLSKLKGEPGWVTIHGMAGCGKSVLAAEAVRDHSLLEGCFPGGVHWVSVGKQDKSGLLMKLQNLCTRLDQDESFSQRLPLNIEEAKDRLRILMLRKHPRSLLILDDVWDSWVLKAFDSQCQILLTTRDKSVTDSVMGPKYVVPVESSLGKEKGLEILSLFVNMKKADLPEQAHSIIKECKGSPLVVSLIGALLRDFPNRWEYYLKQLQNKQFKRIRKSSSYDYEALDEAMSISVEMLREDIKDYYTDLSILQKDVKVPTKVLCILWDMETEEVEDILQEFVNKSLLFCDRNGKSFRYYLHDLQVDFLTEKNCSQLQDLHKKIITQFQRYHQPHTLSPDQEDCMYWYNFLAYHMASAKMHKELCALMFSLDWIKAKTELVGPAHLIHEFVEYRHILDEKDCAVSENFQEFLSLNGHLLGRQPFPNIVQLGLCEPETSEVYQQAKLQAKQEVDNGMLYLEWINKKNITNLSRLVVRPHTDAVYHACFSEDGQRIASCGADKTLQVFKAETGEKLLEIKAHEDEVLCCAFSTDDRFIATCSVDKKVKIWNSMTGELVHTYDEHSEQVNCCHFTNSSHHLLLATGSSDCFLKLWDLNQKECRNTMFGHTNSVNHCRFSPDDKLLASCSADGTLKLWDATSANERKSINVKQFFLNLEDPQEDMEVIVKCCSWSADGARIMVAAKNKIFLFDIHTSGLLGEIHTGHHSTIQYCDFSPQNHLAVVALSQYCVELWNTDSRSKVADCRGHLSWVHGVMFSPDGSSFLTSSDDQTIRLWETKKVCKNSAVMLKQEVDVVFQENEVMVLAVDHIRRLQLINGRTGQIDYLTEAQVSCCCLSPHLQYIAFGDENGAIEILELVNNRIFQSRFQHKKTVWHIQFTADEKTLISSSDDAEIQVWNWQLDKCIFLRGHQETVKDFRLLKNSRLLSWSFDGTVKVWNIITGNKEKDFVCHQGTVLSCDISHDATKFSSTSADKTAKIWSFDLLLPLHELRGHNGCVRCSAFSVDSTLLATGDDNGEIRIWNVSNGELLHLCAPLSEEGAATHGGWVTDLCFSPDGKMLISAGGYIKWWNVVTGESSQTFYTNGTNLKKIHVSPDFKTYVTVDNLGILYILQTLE
In kind it is functional.

A short description of assay [2]: THP-1 cell cytotoxicity, dose response, cytotoxicity control for Vif-APOBEC3G degradation inhibitor project, THP-1 cells (AID 1117359). The conditions noted are these: Human immunodeficiency virus 1, THP-1. The class given is functional.
Assay [3] addresses T2, Zinc finger protein mex-5 (Caenorhabditis elegans, UniProt Q9XUB2).
T2 sequence (Q9XUB2 whole entry): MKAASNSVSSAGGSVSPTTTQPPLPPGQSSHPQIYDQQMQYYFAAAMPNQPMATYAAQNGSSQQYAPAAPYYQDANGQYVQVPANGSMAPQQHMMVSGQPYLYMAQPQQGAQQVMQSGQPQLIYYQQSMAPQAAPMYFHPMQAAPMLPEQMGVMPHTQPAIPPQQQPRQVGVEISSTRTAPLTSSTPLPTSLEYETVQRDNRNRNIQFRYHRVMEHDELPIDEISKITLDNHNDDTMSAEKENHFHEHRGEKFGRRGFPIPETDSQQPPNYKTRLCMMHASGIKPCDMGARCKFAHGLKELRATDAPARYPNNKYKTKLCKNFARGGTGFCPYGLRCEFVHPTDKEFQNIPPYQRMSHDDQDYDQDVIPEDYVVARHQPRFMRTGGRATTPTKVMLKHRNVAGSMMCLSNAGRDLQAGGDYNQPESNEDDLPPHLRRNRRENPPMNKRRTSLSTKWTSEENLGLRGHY
Briefly: MEX-5/TCR-2 RNA interaction inhibitors, dose response, biochemical, C. elegans, fluorescence polarization (AID 1960).

Assay [4] concerns the target T3, Rac GTPase-activating protein 1 (Homo sapiens, UniProt Q9H0H5).
T3 sequence (Q9H0H5 whole entry): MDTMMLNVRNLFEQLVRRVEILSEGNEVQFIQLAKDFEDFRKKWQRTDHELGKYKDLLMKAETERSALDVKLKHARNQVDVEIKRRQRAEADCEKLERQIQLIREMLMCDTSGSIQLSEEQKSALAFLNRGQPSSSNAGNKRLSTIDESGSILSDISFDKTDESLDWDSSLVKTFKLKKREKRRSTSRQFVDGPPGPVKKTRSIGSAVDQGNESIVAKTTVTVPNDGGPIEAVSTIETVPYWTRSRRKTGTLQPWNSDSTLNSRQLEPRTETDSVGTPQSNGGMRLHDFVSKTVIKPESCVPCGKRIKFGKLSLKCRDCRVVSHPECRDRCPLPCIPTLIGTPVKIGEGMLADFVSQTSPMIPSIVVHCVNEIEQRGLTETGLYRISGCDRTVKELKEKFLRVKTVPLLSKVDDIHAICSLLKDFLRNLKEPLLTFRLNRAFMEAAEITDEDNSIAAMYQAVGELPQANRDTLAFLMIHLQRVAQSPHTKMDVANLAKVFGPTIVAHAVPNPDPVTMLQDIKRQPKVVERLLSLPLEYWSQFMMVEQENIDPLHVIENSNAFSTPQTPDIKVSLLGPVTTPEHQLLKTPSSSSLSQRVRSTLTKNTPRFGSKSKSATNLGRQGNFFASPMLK
Briefly: MgcRacGAP GTPase-activating activity inhibitors, confirmation, biochemical, ADP Hunter fluorescence, primary and confirmatory (AID 624330). The class given is functional.

Assay [5] concerns the target T4, RNA-binding protein pos-1 (Caenorhabditis elegans, UniProt G5EF15).
T4 sequence (G5EF15 whole entry): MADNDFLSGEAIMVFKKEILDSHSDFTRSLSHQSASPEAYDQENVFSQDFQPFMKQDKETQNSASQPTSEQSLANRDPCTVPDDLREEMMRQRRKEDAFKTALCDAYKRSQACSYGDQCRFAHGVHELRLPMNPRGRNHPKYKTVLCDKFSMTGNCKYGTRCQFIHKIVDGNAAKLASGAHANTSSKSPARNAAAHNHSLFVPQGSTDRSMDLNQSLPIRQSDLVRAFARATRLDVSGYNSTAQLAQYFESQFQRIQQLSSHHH
Put plainly: inhibitors of POS-1/mex-3 RNA binding, dose response, biochemical, fluorescence polarization (AID 1964).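 Further: purified POS-1 fused to maltose binding protein made in E. coli; potency of compounds blocking POS-1 binding to fluorescent RNA.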

Assay [6] addresses T5, Carboxy-terminal domain RNA polymerase II polypeptide A small phosphatase 1 (Homo sapiens, UniProt Q9GZU7).
T5 sequence (Q9GZU7 whole entry): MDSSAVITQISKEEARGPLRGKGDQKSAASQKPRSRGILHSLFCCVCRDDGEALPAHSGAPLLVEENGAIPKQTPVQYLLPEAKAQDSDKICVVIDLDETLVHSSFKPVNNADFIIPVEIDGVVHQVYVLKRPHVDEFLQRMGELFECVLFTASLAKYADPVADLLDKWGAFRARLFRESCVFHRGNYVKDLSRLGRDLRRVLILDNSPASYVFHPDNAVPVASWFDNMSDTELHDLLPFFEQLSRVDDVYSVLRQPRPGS
Put plainly: inhibitors of CTDSP1, concentration-response testing, biochemical assay, absorbance-based, actives from ultra-high-throughput screening (AID 540297). In kind it is functional.

Another assay concerns the target T6, Leucine aminopeptidase (Plasmodium falciparum 3D7, UniProt Q8IL11).
T6 sequence (Q8IL11 whole entry): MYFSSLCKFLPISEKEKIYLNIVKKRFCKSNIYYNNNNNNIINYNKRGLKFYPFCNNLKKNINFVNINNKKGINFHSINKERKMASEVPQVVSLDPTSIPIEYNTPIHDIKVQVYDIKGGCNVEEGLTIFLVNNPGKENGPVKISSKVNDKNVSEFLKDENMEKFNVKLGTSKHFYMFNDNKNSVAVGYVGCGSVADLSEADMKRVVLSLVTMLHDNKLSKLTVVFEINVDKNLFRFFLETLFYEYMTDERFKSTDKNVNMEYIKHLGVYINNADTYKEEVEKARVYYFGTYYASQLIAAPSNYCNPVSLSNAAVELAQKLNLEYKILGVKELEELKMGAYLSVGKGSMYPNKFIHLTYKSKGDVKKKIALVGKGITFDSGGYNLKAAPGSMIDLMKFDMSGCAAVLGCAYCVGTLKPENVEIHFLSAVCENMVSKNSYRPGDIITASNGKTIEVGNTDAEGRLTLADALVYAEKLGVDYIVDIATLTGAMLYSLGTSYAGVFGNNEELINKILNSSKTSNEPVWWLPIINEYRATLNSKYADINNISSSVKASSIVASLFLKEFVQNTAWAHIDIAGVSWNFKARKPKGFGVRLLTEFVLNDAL
Put plainly: P. falciparum M17LAP inhibitors, primary screen, biochemical, fluorogenic H-Leu-NHMec substrate, 1536-well (AID 1619). In kind it is functional.

A further assay has as its target Estrogen receptor beta (Homo sapiens, UniProt Q92731). Briefly: ERβ–SRC-3 coactivator interaction inhibitors, confirmation, orthogonal assay, biochemical, ELISA, streptavidin-HRP readout (AID 1060).
Another assay has as its system H9c2. Briefly: cells. The class given is functional, cell-based. The settings on record: Rattus norvegicus, H9c2, Myocardium.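 Further: confirmatory concentration-response retest of ultra-high-throughput screening hits for modulation of myocardial damage; cell death induced by hydrogen peroxide oxidative stress; compound pretreatment for 60 min then peroxide exposure for 2 h; potency is for protecting the cells against peroxide damage rather than for killing them.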
The target of assay [7] is T7, Corticotropin-releasing factor receptor 2/Corticotropin-releasing factor-binding protein (Homo sapiens, UniProt P24387+Q13324).
T7 sequence (Q13324 whole entry): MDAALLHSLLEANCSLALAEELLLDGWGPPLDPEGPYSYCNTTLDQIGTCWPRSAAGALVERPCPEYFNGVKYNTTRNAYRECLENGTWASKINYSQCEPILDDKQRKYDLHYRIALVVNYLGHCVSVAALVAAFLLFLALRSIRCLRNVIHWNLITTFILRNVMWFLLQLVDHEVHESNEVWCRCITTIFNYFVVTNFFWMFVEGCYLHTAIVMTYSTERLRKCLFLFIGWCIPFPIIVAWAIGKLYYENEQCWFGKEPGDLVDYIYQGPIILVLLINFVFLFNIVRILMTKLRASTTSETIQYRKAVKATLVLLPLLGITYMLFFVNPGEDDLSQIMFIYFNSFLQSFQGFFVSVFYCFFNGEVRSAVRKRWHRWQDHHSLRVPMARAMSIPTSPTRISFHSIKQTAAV
T7 sequence (P24387 whole entry): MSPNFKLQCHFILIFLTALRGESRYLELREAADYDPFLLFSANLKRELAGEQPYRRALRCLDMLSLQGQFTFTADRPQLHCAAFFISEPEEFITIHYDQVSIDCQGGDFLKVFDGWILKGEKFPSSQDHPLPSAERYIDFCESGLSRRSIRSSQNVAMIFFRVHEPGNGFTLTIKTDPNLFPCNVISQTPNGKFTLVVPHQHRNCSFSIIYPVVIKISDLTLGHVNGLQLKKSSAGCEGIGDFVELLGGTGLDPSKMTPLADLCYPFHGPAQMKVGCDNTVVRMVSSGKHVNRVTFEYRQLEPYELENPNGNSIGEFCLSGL
Briefly: activators of CRF receptor 2 with binding protein – uHTS hits, confirmation (AID 602473). In kind it is functional. The conditions noted are these: read-out: EC50_Mean.

For another assay, the target named is T8, Estrogen receptor (Homo sapiens, UniProt P03372).
T8 sequence (P03372 whole entry): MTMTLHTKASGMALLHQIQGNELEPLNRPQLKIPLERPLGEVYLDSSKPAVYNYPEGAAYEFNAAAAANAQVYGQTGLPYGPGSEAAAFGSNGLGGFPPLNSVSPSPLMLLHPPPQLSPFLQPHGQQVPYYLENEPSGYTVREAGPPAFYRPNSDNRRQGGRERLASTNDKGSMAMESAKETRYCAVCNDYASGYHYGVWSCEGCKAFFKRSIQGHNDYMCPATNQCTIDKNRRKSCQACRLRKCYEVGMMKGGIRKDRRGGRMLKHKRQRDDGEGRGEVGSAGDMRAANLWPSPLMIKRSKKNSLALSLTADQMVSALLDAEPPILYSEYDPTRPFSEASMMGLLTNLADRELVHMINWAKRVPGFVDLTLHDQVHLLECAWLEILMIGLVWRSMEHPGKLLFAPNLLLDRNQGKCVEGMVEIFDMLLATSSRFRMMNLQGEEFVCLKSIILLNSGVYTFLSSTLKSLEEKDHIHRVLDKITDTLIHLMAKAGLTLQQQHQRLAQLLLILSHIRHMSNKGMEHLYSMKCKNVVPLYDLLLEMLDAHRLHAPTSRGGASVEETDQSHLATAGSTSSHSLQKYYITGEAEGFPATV

The target in assay [8] is Voltage-gated N-type calcium channel alpha-1B subunit/Amyloid beta A4 precursor protein-binding family A member 1 (Homo sapiens, UniProt Q00975+Q02410). The class given is protein assay.
The target of assay [9] is Protein-tyrosine kinase 2-beta (Homo sapiens, UniProt Q14289).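 Further: potency of inhibitors of PYK2 kinase phosphorylation of poly-GT substrate.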
Protein-tyrosine kinase 2-beta, sequence (Q14289 whole entry): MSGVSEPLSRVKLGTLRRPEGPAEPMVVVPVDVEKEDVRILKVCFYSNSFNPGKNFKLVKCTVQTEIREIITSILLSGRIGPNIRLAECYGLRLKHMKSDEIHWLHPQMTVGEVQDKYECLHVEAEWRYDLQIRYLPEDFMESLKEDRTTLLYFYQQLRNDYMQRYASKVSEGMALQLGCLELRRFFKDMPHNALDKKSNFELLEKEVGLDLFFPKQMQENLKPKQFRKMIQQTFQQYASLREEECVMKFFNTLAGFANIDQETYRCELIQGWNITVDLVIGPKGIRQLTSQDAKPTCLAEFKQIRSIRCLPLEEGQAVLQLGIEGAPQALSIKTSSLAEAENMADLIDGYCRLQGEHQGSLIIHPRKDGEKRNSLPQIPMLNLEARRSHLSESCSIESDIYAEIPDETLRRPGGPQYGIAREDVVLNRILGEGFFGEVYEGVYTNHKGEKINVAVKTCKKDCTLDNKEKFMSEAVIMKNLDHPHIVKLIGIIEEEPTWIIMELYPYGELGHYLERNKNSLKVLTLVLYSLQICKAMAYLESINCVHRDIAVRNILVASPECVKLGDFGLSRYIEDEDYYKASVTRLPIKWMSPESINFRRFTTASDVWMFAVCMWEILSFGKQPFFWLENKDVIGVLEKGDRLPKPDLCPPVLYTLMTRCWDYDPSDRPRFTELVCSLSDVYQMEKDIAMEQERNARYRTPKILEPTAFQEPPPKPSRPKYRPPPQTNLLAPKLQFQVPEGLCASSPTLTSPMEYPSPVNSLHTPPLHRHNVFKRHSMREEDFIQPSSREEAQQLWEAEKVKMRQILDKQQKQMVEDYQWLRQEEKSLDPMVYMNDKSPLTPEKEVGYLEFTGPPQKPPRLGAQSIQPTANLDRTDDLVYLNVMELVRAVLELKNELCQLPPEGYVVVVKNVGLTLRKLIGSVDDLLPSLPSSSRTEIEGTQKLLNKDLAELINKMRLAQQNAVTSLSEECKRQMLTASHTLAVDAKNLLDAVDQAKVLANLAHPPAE

Voltage-gated N-type calcium channel alpha-1B subunit/Amyloid beta A4 precursor protein-binding family A member 1, sequence (Q00975 whole entry): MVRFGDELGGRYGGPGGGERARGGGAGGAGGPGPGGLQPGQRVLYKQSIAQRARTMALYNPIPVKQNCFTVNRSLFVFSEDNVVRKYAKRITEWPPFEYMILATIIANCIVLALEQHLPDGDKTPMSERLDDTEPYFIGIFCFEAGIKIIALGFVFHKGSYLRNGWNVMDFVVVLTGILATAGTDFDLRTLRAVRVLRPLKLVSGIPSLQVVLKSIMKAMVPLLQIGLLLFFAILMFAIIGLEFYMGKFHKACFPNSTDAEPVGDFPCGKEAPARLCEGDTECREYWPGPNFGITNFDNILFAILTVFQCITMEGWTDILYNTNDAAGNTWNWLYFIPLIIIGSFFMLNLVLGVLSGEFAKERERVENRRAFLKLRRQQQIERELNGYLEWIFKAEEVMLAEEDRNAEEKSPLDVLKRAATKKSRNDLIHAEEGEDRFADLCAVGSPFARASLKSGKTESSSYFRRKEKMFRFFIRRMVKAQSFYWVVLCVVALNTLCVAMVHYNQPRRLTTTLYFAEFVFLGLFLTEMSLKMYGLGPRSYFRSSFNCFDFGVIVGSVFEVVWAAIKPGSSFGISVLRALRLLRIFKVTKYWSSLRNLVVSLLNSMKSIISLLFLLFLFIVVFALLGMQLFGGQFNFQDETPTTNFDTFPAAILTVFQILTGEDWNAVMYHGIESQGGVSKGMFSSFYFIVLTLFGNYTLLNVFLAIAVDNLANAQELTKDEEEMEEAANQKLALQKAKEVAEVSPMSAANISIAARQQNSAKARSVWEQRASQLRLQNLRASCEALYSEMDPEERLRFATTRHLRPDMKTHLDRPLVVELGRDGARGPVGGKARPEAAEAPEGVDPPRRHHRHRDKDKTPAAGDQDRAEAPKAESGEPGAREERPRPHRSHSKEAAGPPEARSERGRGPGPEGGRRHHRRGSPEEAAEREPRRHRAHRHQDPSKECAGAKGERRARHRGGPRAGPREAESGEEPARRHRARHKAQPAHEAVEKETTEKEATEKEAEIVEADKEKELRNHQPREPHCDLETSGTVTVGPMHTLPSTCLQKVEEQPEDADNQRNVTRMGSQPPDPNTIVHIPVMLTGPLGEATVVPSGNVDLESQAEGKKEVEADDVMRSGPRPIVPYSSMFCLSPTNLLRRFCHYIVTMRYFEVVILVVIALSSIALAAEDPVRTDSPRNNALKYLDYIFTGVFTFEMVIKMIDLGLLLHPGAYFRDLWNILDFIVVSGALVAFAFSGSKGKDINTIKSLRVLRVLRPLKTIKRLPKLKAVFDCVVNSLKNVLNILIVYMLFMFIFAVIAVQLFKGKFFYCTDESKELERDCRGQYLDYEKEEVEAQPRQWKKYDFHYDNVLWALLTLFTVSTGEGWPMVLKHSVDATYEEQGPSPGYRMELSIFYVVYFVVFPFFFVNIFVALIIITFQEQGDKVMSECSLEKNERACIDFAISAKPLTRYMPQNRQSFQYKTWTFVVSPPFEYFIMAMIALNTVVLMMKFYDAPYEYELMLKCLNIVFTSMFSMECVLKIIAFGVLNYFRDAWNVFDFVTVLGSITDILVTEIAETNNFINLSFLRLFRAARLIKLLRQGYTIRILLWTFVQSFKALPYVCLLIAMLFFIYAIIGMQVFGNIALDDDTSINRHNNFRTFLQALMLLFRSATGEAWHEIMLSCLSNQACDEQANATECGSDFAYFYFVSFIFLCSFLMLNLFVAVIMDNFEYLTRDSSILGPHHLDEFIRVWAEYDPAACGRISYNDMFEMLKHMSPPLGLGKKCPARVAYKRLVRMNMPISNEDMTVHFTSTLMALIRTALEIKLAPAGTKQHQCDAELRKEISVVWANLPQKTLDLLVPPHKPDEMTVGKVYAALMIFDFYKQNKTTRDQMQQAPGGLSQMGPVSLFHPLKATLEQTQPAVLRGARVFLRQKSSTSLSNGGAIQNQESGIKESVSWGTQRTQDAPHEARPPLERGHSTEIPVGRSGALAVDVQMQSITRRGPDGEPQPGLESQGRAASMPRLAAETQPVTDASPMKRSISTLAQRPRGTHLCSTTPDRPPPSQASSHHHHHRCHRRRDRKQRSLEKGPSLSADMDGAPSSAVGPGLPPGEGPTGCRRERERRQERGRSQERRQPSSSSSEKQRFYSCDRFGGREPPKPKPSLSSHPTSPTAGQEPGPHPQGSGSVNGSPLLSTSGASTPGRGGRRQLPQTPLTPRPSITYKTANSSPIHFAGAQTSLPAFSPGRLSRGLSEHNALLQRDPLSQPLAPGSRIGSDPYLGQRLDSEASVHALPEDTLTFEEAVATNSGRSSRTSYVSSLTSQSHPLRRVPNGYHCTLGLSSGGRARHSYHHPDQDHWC
Voltage-gated N-type calcium channel alpha-1B subunit/Amyloid beta A4 precursor protein-binding family A member 1, sequence (Q02410 whole entry): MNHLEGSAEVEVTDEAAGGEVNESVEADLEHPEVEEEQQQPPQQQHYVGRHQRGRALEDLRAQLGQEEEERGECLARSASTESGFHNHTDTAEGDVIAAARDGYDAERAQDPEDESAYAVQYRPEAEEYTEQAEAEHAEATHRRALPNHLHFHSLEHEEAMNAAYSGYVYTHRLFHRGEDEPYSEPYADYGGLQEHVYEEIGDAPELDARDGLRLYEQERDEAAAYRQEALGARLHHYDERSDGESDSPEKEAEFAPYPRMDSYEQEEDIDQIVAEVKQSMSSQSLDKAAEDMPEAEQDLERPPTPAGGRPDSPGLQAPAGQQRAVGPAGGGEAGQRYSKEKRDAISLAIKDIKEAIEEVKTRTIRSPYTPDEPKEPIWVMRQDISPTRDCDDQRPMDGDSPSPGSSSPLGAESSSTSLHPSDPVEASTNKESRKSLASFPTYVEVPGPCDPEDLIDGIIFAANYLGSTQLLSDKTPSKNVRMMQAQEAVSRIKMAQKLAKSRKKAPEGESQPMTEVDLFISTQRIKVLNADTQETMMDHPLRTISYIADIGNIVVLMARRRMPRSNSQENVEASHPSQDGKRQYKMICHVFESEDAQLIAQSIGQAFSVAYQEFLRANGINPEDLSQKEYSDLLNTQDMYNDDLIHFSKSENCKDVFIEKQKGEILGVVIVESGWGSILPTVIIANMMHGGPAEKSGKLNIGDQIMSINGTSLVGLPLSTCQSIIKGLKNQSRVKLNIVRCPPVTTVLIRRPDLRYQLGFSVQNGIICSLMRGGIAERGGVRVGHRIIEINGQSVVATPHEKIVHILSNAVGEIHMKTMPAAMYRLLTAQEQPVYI
Estrogen receptor beta, sequence (Q92731 whole entry): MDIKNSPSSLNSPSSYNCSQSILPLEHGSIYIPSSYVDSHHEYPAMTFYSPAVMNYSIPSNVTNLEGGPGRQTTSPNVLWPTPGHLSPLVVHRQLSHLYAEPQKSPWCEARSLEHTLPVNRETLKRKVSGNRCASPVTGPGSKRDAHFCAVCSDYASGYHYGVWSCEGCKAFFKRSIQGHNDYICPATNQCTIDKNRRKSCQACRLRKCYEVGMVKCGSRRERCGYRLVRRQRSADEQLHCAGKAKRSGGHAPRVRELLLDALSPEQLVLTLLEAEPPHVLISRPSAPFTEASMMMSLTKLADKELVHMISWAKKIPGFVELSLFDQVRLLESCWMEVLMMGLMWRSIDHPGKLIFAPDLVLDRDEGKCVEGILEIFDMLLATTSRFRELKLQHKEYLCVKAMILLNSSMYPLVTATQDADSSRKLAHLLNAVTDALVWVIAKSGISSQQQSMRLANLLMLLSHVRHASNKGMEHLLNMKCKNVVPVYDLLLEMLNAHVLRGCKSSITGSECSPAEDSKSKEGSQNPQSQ

With `CCCN(CC(=O)Nc1ccccc1OC)C(=O)CSc1ccc(Br)cc1C`, the 50% inhibitory concentration (IC50) in [1] is 48.4 µM (active). Moreover, the 50% cytotoxic concentration (CC50) in assay [2] is > 40 µM (active).

For the compound `Cn1cccc1/C=C1\C(=O)NC(=O)N(Cc2ccco2)C1=O`, the EC50 in [3] is 57.7 µM (active); in assay [5], > 300 µM (not active). The values for the concentration for half-maximal inhibition (IC50) in assay [4] and in [6] were 116 µM (active) and 4.88 µM (active), respectively. In assay [2], the CC50 is > 40 µM (active).

With `O=C(CN1C(=O)c2ccccc2C1=O)Nc1ccc2c(c1)OCO2`, the IC50 on Leucine aminopeptidase is 9.43 µM (active).

As to `Cc1nc(SCC(=O)Nc2ccc3c(c2)OCCO3)nc(C)c1C`, on Leucine aminopeptidase, the half-inhibitory concentration (IC50) was 43.5 µM (active).

In the case of `N#Cc1c(NC(=O)CN2CCCCC2)sc2c1CCC2`, on Estrogen receptor beta, the IC50 was 0.0561 µM (not active).

With `COc1cc(/C=c2\s/c(=C(/C#N)C(=O)N3CCCC3)n(-c3ccccc3)c2=O)ccc1O`, the IC50 was > 79 µM (inactive) in the assay on H9c2 and > 50 µM (not active) at Estrogen receptor. For the same compound, the EC50 in assay [7] was 8.71 µM (active).

`CCOc1ccc(NC(=O)Cn2cncc2-c2ccc([N+](=O)[O-])cc2)cc1`: in [8], the 50% inhibitory concentration (IC50) was 5.93 µM (active).

As to `O=C(OCC(=O)N1CCN(C(=O)c2ccco2)CC1)c1cc(-c2ccc(Cl)c(Cl)c2Cl)nc2ccccc12`, in assay [9], the half-maximal inhibitory concentration (IC50) is 5.94 µM (active).
